pEC50, pIC50: −log10 of the molar value. Active and inactive are the calls of the source. No cut-off for these calls is given here.
Experiments:
SARS-CoV-2 [1] = test: (§1) Antiviral activity against SARS-CoV-2 Omicron BA.1 infected in African green monkey Vero E6 cells assessed as inhibition of plaque formation at 50 uM incubated for 1 hr followed by virus-drug mixture washout and further addition of media without compound for 5 to 7 days by crystal violet staining based assay relative to control; type: functional, Severe acute respiratory syndrome coronavirus 2; details: for inhibition at 50 µM: Severe acute respiratory syndrome coronavirus 2, Omicron BA.1, Vero C1008
SARS-CoV-2 [2] = test: as §1, with “5” for “50”; type: functional, Severe acute respiratory syndrome coronavirus 2; details: for inhibition at 5 µM: Severe acute respiratory syndrome coronavirus 2, Omicron BA.1, Vero C1008
SARS-CoV-2 [3] = test: as §1, with “0.5” for “50”; type: functional, Severe acute respiratory syndrome coronavirus 2; details: for inhibition at 0.5 µM: Severe acute respiratory syndrome coronavirus 2, Omicron BA.1, Vero C1008
SARS-CoV-2 [4] = test: as §1, with “Delta” for “Omicron BA.1”, “0.5” for “50”, “assay” for “assay relative to control”; type: functional, organism-based; details: Severe acute respiratory syndrome coronavirus 2
[5] = Cytotoxicity against African green monkey Vero E6 cells assessed as reduction in cell viability incubated for 48 hrs by MTT assay; type: toxicity, cell-based, Vero C1008; details: chlorocebus sabaeus
SARS-CoV-2 [6] = test: as §1, with “Delta” for “Omicron BA.1”, “5” for “50”, “assay” for “assay relative to control”; type: functional, organism-based; details: Severe acute respiratory syndrome coronavirus 2
SARS-CoV-2 [7] = test: as §1, with “Delta” for “Omicron BA.1”; type: functional, Severe acute respiratory syndrome coronavirus 2; details: for inhibition at 50 µM: Severe acute respiratory syndrome coronavirus 2, Delta, Vero C1008
SARS-CoV-2 [8] = test: as §1, with “Delta” for “Omicron BA.1”, “assay” for “assay relative to control”; type: functional, organism-based; details: Severe acute respiratory syndrome coronavirus 2
[9] = molecular target: Spike glycoprotein (Severe acute respiratory syndrome coronavirus 2) (UniProt P0DTC2); test: Binding affinity to NTA chip immobilised recombinant SARS-CoV-2 Delta spike protein RBD at 50 uM measured for 500 secs by SPR analysis; details: time 500.0 sec
SARS-CoV-2 [10] = test: (§2) Synergistic antiviral activity against SARS-CoV-2 Delta infected in Vero E6 cells assessed as reduction in plaque formation by measuring combination index at ED50 incubated for 1 hr in presence of ivermectin followed by virus-drug mixture washout and further addition of media without compound for 5 to 7 days by Chou-Talalay method; type: functional, Severe acute respiratory syndrome coronavirus 2
SARS-CoV-2 [11] = test: as §2, with “Omicron BA.1” for “Delta”; type: functional, Severe acute respiratory syndrome coronavirus 2
SARS-CoV-2 [12] = test: (§3) Antiviral activity against SARS-CoV-2 Omicron BA.1 infected in African green monkey Vero E6 cells assessed as inhibition of plaque formation incubated for 1 hr followed by virus-drug mixture washout and further addition of media without compound for 5 to 7 days by crystal violet staining based assay; type: functional, organism-based; details: Severe acute respiratory syndrome coronavirus 2, Omicron BA.1, Vero C1008
SARS-CoV-2 [13] = test: Antiviral activity against SARS-CoV-2 Delta infected in African green monkey Vero E6 cells assessed as inhibition of plaque formation incubated for 1 hr followed by virus-drug mixture washout and further addition of media without compound for 5 to 7 days by crystal violet staining based assay; type: functional, organism-based; details: Severe acute respiratory syndrome coronavirus 2, Delta, Vero C1008
SARS-CoV-2 [14] = test: as §1, with “Delta” for “Omicron BA.1”, “100” for “50”; type: functional; details: Severe acute respiratory syndrome coronavirus 2, Delta, Vero C1008
SARS-CoV-2 [15] = test: Antiviral activity against SARS-CoV-2 infected in African green monkey Vero E6 cells preincubated for 1 hr followed by addition of fresh medium containing compounds and measured after 24 hrs by qRT-PCR analysis; type: functional, organism-based; details: Severe acute respiratory syndrome coronavirus 2, Vero C1008
SARS-CoV-2 [16] = test: as §1, with “100” for “50”; type: functional; details: Severe acute respiratory syndrome coronavirus 2, Omicron BA.1, Vero C1008
SARS-CoV-2 [17] = test: as §1, with “Delta” for “Omicron BA.1”, “5” for “50”; type: functional, Severe acute respiratory syndrome coronavirus 2; details: for inhibition at 5 µM: Severe acute respiratory syndrome coronavirus 2, Delta, Vero C1008
SARS-CoV-2 [18] = test: as §3, with “formation at 0.5 uM” for “formation”; type: functional, organism-based; details: Severe acute respiratory syndrome coronavirus 2
SARS-CoV-2 [19] = test: Synergistic antiviral activity against SARS-CoV-2 Omicron BA.1 infected in Vero E6 cells incubated for 1 hr in presence of ivermectin followed by virus-drug mixture washout and further addition of media without compound for 5 to 7 days by crystal violet staining based assay; type: functional, organism-based; details: Severe acute respiratory syndrome coronavirus 2
SARS-CoV-2 [20] = test: Synergistic antiviral activity against SARS-CoV-2 Delta infected in Vero E6 cells incubated for 1 hr in presence of ivermectin followed by virus-drug mixture washout and further addition of media without compound for 5 to 7 days by crystal violet staining based assay; type: functional, organism-based; details: Severe acute respiratory syndrome coronavirus 2
SARS-CoV-2 [21] = test: as §1, with “Delta” for “Omicron BA.1”, “0.5” for “50”; type: functional, Severe acute respiratory syndrome coronavirus 2
SARS-CoV-2 [22] = test: as §1, with “assay” for “assay relative to control”; type: functional, organism-based; details: Severe acute respiratory syndrome coronavirus 2

Structure (SMILES): C#CCNC(=O)[C@@H](Cc1ccc(O)c(O)c1)OC(=O)/C=C/c1ccc(O)c(O)c1
- inhibition at 50 µM (SARS-CoV-2 [1]): 26%
- inhibition at 5 µM (SARS-CoV-2 [2]): 17%
- inhibition at 0.5 µM (SARS-CoV-2 [3]): 17%
- inhibition (SARS-CoV-2 [4]): inactive
- CC50 at 48 h [5]: > 100 µM
- inhibition (SARS-CoV-2 [6]): inactive
- inhibition at 50 µM (SARS-CoV-2 [7]): 30%

Structure (SMILES): COc1c(O)c(OC)c2oc(-c3ccc(O)cc3)cc(=O)c2c1O
- inhibition (SARS-CoV-2 [8]): Active

Structure (SMILES): COC(=O)[C@@H](Cc1ccc(O)c(O)c1)OC(=O)/C=C/c1ccc(O)c(O)c1 [METHYL ROSMARINATE]
- Activity [9]: inactive
- CI (SARS-CoV-2 [10]): 1.74
- CI (SARS-CoV-2 [11]): 1.67
- inhibition (SARS-CoV-2 [8]): Active
- pIC50 (SARS-CoV-2 [12]): 4.24
- CC50 at 48 h [5]: > 1000 µM
- pIC50 (SARS-CoV-2 [13]): 4.05

Structure (SMILES): O=C(O)[C@H](O)Cc1ccc(O)c(O)c1
- inhibition at 50 µM (SARS-CoV-2 [1]): 40%
- inhibition at 100 µM (SARS-CoV-2 [14]): 19%
- pEC50 (SARS-CoV-2 [15]): 6.01
- inhibition at 50 µM (SARS-CoV-2 [7]): 19%
- inhibition at 100 µM (SARS-CoV-2 [16]): 40%

Structure (SMILES): O=C(/C=C/c1ccc(O)c(O)c1)O[C@H](Cc1ccc(O)c(O)c1)C(=O)NCCCCCCCl
- inhibition at 50 µM (SARS-CoV-2 [1]): 66%
- inhibition at 5 µM (SARS-CoV-2 [2]): 29%
- inhibition at 0.5 µM (SARS-CoV-2 [3]): 14%
- inhibition at 5 µM (SARS-CoV-2 [17]): 18%
- inhibition (SARS-CoV-2 [4]): inactive
- CC50 at 48 h [5]: > 100 µM
- inhibition at 50 µM (SARS-CoV-2 [7]): 75%

Structure (SMILES): O=C(/C=C/c1ccc(O)c(O)c1)O[C@H](Cc1ccc(O)c(O)c1)C(=O)N1CCCCC1
- inhibition at 50 µM (SARS-CoV-2 [1]): 67%
- inhibition at 5 µM (SARS-CoV-2 [2]): 38%
- inhibition at 0.5 µM (SARS-CoV-2 [3]): 24%
- inhibition (SARS-CoV-2 [4]): inactive
- CC50 at 48 h [5]: > 100 µM
- inhibition (SARS-CoV-2 [6]): inactive
- inhibition at 50 µM (SARS-CoV-2 [7]): 33%

Structure (SMILES): O=C(/C=C/c1ccc(O)c(O)c1)O[C@H](Cc1ccc(O)c(O)c1)C(=O)N1CCOCC1
- inhibition at 50 µM (SARS-CoV-2 [1]): 23%
- inhibition at 5 µM (SARS-CoV-2 [2]): 19%
- inhibition (SARS-CoV-2 [18]): inactive
- inhibition (SARS-CoV-2 [4]): inactive
- CC50 at 48 h [5]: > 100 µM
- inhibition (SARS-CoV-2 [6]): inactive
- inhibition at 50 µM (SARS-CoV-2 [7]): 8%

Structure (SMILES): O=C(O)/C=C/c1ccc(O)c(O)c1 [CAFFEIC ACID]
- inhibition at 50 µM (SARS-CoV-2 [1]): 36%
- inhibition at 100 µM (SARS-CoV-2 [14]): 29%
- inhibition at 50 µM (SARS-CoV-2 [7]): 23%
- inhibition at 100 µM (SARS-CoV-2 [16]): 42%

Structure (SMILES): O=C(/C=C/c1ccc(O)c(O)c1)O[C@H](Cc1ccc(O)c(O)c1)C(=O)NCc1ccccc1
- inhibition at 50 µM (SARS-CoV-2 [1]): 58%
- inhibition at 5 µM (SARS-CoV-2 [2]): 17%
- inhibition (SARS-CoV-2 [18]): inactive
- inhibition at 5 µM (SARS-CoV-2 [17]): 18%
- inhibition (SARS-CoV-2 [4]): inactive
- CC50 at 48 h [5]: > 100 µM
- inhibition at 50 µM (SARS-CoV-2 [7]): 57%

Structure (SMILES): COCCNC(=O)[C@@H](Cc1ccc(O)c(O)c1)OC(=O)/C=C/c1ccc(O)c(O)c1
- inhibition at 50 µM (SARS-CoV-2 [1]): 29%
- inhibition at 5 µM (SARS-CoV-2 [2]): 13%
- inhibition (SARS-CoV-2 [18]): inactive
- inhibition (SARS-CoV-2 [4]): inactive
- CC50 at 48 h [5]: > 100 µM
- inhibition (SARS-CoV-2 [6]): inactive
- inhibition at 50 µM (SARS-CoV-2 [7]): 23%

Structure (SMILES): O=C(/C=C/c1ccc(O)c(O)c1)O[C@H](Cc1ccc(O)c(O)c1)C(=O)O [ROSMARINIC ACID]
- inhibition at 50 µM (SARS-CoV-2 [1]): 33%
- inhibition at 100 µM (SARS-CoV-2 [14]): 9%
- inhibition at 50 µM (SARS-CoV-2 [7]): 7%
- inhibition at 100 µM (SARS-CoV-2 [16]): 40%

Structure (SMILES): COc1cc(C(=O)O)cc(OC)c1O
- Activity (SARS-CoV-2 [19]): inactive
- inhibition (SARS-CoV-2 [8]): Active
- Activity (SARS-CoV-2 [20]): inactive

Structure (SMILES): O=C(/C=C/c1ccc(O)c(O)c1)O[C@H](Cc1ccc(O)c(O)c1)C(=O)NCc1ccco1
- inhibition at 50 µM (SARS-CoV-2 [1]): 66%
- inhibition at 5 µM (SARS-CoV-2 [2]): 29%
- inhibition (SARS-CoV-2 [18]): inactive
- inhibition (SARS-CoV-2 [4]): inactive
- CC50 at 48 h [5]: > 100 µM
- inhibition (SARS-CoV-2 [6]): inactive
- inhibition at 50 µM (SARS-CoV-2 [7]): 20%

Structure (SMILES): CCCCCCNC(=O)[C@@H](Cc1ccc(O)c(O)c1)OC(=O)/C=C/c1ccc(O)c(O)c1
- inhibition at 50 µM (SARS-CoV-2 [1]): 77%
- inhibition at 5 µM (SARS-CoV-2 [2]): 21%
- inhibition at 0.5 µM (SARS-CoV-2 [3]): 21%
- inhibition at 5 µM (SARS-CoV-2 [17]): 23%
- inhibition (SARS-CoV-2 [4]): inactive
- CC50 at 48 h [5]: > 100 µM
- inhibition at 50 µM (SARS-CoV-2 [7]): 95%

Structure (SMILES): CCc1cccc(NC(=O)[C@@H](Cc2ccc(O)c(O)c2)OC(=O)/C=C/c2ccc(O)c(O)c2)c1
- inhibition (INH) (SARS-CoV-2 [1]): 100%
- Activity [9]: inactive
- inhibition (INH) (SARS-CoV-2 [2]): 57%
- inhibition (INH) (SARS-CoV-2 [3]): 24%
- inhibition (INH) (SARS-CoV-2 [17]): 53%
- pIC50 (SARS-CoV-2 [12]): 5.57
- CC50 at 48 h [5]: 50.7 µM
- pIC50 (SARS-CoV-2 [13]): 4.90
- inhibition (INH) (SARS-CoV-2 [21]): 14%
- inhibition (INH) (SARS-CoV-2 [7]): 100%

Structure (SMILES): CCCCCCCCCCCCNC(=O)[C@@H](Cc1ccc(O)c(O)c1)OC(=O)/C=C/c1ccc(O)c(O)c1
- Activity [9]: inactive
- inhibition (SARS-CoV-2 [22]): inactive
- inhibition (INH) (SARS-CoV-2 [2]): 54%
- inhibition (INH) (SARS-CoV-2 [3]): 17%
- inhibition (INH) (SARS-CoV-2 [17]): 78%
- inhibition (SARS-CoV-2 [8]): inactive
- pIC50 (SARS-CoV-2 [12]): 6.11
- CC50 at 48 h [5]: 17.5 µM
- pIC50 (SARS-CoV-2 [13]): 6.03
- inhibition (INH) (SARS-CoV-2 [21]): 15%
